Test results published in the kinase profiling compilation of Christmann-Franck et al. (2016).

Legend:
Assay in all cases: KINOMEscan competition binding
Conditions in all cases: compound 1.0 µM
PAK7 (human) = PAK7 (human) (UniProt Q9P286)
MAP3K11 (human) = MAP3K11 (human) (UniProt Q16584)
CSNK2A2 (human) = CSNK2A2 (human) (UniProt P19784)
MAP3K12 (human) = MAP3K12 (human) (UniProt Q12852)
YSK4 (human) = YSK4 (human) (UniProt Q56UN5)
EPHA1 (human) = EPHA1 (human) (UniProt P21709)
AXL (human) = AXL (human) (UniProt P30530)
MARK2 (human) = MARK2 (human) (UniProt Q7KZI7)
GSK3B (human) = GSK3B (human) (UniProt P49841)
[1] = tested on: FLT3 (human), P36888 [ITD]
GRK7 (human) = GRK7 (human) (UniProt Q8WTQ7)
ULK2 (human) = ULK2 (human) (UniProt Q8IYT8)
CDK11B (human) = CDK11B (human) (UniProt P21127)
STK24 (human) = STK24 (human) (UniProt Q9Y6E0)
LIMK2 (human) = LIMK2 (human) (UniProt P53671)
HIPK1 (human) = HIPK1 (human) (UniProt Q86Z02)
NIM1 (human) = NIM1 (human) (UniProt Q8IY84)
CSNK1G3 (human) = CSNK1G3 (human) (UniProt Q9Y6M4)
AAK1 (human) = AAK1 (human) (UniProt Q2M2I8)
SRPK2 (human) = SRPK2 (human) (UniProt P78362)
FLT4 (human) = FLT4 (human) (UniProt P35916)
ADCK4 (human) = ADCK4 (human) (UniProt Q96D53)
TEC (human) = TEC (human) (UniProt P42680)
[2] = tested on: EGFR (human), P00533 [752-759 del]
[3] = molecular target: TYK2 JH2 pseudokinase (human) (UniProt P29597)
BMPR1A (human) = BMPR1A (human) (UniProt P36894)
[4] = tested on: EGFR (human), P00533 [747-751 del / S ins]
IRAK1 (human) = IRAK1 (human) (UniProt P51617)
EIF2AK1 (human) = EIF2AK1 (human) (UniProt Q9BQI3)
MAP2K5 (human) = MAP2K5 (human) (UniProt Q13163)
[5] = tested on: EGFR (human), P00533 [G719C]
STK38L (human) = STK38L (human) (UniProt Q9Y2H1)
STK17B (human) = STK17B (human) (UniProt O94768)
NTRK3 (human) = NTRK3 (human) (UniProt Q16288)
RPS6KA6 KD2 (human) = RPS6KA6 KD2 (human) (UniProt Q9UK32)
PIP5K1A (human) = PIP5K1A (human) (UniProt Q99755)
PTK2 (human) = PTK2 (human) (UniProt Q05397)
MLTK (human) = MLTK (human) (UniProt Q9NYL2)
MAP3K10 (human) = MAP3K10 (human) (UniProt Q02779)
TSSK1B (human) = TSSK1B (human) (UniProt Q9BXA7)
FGFR4 (human) = FGFR4 (human) (UniProt P22455)
[6] = tested on: PIK3CA (human), P42336 [H1047L]

ULK2 (human), sequence (Q8IYT8 whole entry, looked up): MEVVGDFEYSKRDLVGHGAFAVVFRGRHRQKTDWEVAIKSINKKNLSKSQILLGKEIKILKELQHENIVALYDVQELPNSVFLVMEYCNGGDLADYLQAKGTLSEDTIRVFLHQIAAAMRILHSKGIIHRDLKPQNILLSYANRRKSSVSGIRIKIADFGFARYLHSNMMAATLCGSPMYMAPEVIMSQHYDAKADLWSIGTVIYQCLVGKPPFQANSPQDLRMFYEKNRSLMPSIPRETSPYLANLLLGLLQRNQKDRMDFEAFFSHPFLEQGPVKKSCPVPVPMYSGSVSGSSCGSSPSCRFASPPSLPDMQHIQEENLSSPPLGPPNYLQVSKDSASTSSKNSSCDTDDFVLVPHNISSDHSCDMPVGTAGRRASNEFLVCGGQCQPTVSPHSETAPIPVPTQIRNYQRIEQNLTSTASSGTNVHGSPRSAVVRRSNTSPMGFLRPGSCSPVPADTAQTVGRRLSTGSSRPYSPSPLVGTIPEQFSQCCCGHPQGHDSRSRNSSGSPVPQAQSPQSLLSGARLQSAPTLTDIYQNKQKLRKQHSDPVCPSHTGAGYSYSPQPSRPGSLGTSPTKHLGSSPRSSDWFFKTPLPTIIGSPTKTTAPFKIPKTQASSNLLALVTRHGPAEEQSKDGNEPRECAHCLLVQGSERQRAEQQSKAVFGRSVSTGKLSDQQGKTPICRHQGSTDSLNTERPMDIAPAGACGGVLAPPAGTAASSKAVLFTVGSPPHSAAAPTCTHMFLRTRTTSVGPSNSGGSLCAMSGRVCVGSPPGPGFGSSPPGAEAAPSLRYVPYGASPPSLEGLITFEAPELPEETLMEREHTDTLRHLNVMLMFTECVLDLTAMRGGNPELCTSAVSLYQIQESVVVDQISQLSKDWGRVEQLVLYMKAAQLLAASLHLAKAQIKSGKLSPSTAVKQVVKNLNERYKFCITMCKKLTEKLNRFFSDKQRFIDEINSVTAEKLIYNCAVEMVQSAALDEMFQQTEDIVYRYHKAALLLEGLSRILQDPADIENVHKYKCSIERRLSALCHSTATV
MAP2K5 (human), sequence (Q13163 whole entry, looked up): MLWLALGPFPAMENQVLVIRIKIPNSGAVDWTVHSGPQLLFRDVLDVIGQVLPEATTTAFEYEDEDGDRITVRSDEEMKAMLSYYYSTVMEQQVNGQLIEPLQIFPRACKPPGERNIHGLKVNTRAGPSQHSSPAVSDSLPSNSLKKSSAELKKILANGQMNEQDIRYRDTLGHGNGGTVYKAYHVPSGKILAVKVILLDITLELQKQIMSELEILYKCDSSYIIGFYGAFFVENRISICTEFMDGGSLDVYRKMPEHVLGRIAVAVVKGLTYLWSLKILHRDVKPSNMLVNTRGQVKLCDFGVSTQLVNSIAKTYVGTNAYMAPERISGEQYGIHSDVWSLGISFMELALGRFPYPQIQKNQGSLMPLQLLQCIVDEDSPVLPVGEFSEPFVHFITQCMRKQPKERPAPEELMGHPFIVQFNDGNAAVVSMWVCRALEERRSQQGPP
TYK2 JH2 pseudokinase (human), sequence (P29597 whole entry, looked up): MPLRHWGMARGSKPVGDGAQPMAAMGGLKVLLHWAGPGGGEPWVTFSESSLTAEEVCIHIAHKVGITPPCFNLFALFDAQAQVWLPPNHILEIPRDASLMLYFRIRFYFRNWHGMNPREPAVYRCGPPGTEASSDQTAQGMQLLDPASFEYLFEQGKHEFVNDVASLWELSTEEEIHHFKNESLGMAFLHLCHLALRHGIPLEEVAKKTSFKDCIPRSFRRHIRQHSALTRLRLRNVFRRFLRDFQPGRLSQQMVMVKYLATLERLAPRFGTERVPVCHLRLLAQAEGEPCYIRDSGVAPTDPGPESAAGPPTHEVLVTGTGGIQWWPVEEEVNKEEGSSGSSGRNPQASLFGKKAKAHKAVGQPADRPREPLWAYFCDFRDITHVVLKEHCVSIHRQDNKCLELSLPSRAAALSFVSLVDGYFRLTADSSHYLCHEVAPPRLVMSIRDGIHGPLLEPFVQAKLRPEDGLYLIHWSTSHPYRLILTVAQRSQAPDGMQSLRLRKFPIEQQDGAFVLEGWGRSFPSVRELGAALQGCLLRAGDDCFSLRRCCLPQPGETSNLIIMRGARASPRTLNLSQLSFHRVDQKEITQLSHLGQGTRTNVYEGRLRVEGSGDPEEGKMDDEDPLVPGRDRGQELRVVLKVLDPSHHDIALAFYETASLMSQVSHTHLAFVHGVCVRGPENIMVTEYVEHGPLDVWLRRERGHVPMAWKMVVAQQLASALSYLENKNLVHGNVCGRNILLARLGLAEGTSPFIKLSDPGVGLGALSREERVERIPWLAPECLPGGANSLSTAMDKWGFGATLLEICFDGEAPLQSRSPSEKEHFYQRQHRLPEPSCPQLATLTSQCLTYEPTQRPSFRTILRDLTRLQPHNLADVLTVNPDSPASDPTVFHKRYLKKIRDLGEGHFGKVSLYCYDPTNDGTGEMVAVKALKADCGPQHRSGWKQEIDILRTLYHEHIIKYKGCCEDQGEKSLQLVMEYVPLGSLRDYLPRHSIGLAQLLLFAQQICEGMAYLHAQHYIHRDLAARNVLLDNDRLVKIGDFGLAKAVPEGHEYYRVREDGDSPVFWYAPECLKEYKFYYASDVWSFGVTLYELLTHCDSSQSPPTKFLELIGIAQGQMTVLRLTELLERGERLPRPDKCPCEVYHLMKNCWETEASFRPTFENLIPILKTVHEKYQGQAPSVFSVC
FLT3 (human), P36888 [ITD], sequence (P36888 whole entry, looked up, change not shown): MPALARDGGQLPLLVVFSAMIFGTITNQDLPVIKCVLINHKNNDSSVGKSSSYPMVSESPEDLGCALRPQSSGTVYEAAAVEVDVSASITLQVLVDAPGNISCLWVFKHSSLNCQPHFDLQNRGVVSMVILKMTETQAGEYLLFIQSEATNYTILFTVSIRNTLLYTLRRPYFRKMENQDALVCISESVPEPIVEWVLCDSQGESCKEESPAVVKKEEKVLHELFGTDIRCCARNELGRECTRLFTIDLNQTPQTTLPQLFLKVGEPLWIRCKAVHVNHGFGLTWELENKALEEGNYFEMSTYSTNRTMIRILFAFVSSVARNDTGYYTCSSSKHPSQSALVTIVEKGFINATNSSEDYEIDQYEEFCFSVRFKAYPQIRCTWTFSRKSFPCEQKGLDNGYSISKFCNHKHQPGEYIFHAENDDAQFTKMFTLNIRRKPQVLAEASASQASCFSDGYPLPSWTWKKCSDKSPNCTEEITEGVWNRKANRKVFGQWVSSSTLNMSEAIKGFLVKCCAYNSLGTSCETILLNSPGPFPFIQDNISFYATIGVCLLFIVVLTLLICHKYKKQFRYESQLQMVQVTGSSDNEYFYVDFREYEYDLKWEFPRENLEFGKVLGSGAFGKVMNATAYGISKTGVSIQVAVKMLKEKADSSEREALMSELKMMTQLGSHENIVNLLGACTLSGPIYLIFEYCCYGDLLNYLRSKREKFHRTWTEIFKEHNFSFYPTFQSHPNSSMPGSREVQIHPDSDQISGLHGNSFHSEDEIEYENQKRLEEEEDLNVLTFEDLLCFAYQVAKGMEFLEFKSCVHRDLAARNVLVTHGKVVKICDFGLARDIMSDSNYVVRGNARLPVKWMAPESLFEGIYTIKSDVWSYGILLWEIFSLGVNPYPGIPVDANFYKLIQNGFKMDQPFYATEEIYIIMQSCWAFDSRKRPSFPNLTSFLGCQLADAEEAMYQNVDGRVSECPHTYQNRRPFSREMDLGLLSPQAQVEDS
ADCK4 (human), sequence (Q96D53 whole entry, looked up): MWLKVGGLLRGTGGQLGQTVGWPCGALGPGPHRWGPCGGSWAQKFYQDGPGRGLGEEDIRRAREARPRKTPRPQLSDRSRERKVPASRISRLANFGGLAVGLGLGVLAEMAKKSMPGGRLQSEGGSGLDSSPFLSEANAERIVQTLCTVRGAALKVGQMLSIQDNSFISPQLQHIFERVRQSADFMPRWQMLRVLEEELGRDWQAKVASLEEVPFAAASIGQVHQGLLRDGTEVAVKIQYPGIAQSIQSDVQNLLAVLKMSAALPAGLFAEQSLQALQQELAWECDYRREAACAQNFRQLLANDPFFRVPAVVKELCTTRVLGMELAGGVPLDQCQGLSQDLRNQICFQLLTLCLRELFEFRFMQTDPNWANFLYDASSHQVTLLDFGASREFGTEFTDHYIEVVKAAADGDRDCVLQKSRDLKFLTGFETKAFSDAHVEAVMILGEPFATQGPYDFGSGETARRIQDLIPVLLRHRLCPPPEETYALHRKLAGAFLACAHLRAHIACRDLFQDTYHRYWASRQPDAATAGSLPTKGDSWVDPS
MLTK (human), sequence (Q9NYL2 whole entry, looked up): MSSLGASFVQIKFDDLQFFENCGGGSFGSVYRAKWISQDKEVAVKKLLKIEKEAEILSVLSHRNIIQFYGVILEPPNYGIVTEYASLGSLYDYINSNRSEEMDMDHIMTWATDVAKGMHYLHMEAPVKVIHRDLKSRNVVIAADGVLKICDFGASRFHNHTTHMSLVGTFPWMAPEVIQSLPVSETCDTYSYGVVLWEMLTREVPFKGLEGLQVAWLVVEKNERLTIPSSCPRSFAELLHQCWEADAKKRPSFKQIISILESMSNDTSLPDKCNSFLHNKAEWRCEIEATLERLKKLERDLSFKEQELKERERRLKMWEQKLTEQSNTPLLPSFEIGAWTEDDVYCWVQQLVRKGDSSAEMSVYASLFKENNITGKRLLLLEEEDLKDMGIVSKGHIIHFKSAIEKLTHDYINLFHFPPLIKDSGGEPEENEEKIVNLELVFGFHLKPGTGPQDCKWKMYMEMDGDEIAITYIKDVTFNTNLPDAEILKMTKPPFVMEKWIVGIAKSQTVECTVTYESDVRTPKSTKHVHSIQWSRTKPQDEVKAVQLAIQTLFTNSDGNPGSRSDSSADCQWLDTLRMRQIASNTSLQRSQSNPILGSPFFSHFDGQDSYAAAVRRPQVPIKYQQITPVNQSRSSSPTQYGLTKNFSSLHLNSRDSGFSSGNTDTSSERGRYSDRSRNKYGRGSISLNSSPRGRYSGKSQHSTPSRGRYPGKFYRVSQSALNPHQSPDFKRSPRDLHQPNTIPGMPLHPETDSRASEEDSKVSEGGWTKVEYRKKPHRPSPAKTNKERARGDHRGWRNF

Cc1cc(NC(=O)c2cccc(NC(=O)/C=C/CN(C)C)c2)ccc1Nc1nccc(-c2cccnc2)n1
kinase still bound, per cent of control (PAK7 (human)): 88%
kinase still bound, per cent of control (MAP3K11 (human)): 91%
kinase still bound, per cent of control (CSNK2A2 (human)): 39%
kinase still bound, per cent of control (MAP3K12 (human)): 99%
kinase still bound, per cent of control (YSK4 (human)): 65%
kinase still bound, per cent of control (EPHA1 (human)): 99%
kinase still bound, per cent of control (AXL (human)): 77%
kinase still bound, per cent of control (MARK2 (human)): 77%
kinase still bound, per cent of control (GSK3B (human)): 100%
kinase still bound, per cent of control [1]: 50%
kinase still bound, per cent of control (GRK7 (human)): 72%
kinase still bound, per cent of control (ULK2 (human)): 96%
kinase still bound, per cent of control (CDK11B (human)): 100%
kinase still bound, per cent of control (STK24 (human)): 79%
kinase still bound, per cent of control (LIMK2 (human)): 98%
kinase still bound, per cent of control (HIPK1 (human)): 100%
kinase still bound, per cent of control (NIM1 (human)): 100%
kinase still bound, per cent of control (CSNK1G3 (human)): 100%
kinase still bound, per cent of control (AAK1 (human)): 69%
kinase still bound, per cent of control (SRPK2 (human)): 100%
kinase still bound, per cent of control (FLT4 (human)): 100%
kinase still bound, per cent of control (ADCK4 (human)): 93%
kinase still bound, per cent of control (TEC (human)): 100%
kinase still bound, per cent of control [2]: 79%
kinase still bound, per cent of control [3]: 80%
kinase still bound, per cent of control (BMPR1A (human)): 100%
kinase still bound, per cent of control [4]: 95%
kinase still bound, per cent of control (IRAK1 (human)): 13%
kinase still bound, per cent of control (EIF2AK1 (human)): 100%
kinase still bound, per cent of control (MAP2K5 (human)): 67%
kinase still bound, per cent of control [5]: 81%
kinase still bound, per cent of control (STK38L (human)): 100%
kinase still bound, per cent of control (STK17B (human)): 72%
kinase still bound, per cent of control (NTRK3 (human)): 79%
kinase still bound, per cent of control (RPS6KA6 KD2 (human)): 76%
kinase still bound, per cent of control (PIP5K1A (human)): 75%
kinase still bound, per cent of control (PTK2 (human)): 11%
kinase still bound, per cent of control (MLTK (human)): 100%
kinase still bound, per cent of control (MAP3K10 (human)): 87%
kinase still bound, per cent of control (TSSK1B (human)): 100%
kinase still bound, per cent of control (FGFR4 (human)): 100%
kinase still bound, per cent of control [6]: 100%
